Data as given in ChEMBL document CHEMBL1158694, “Terphenylquinone inhibitors of the src protein tyrosine kinase from Stilbella sp” (J Nat Prod, 2005).

What follows are molecules tested against Proto-oncogene tyrosine-protein kinase Src (Homo sapiens, UniProt P12931) (assay: Inhibition of His-tagged human src kinase expressed in Sf9 cells by DELFIA assay).
Sequence of Proto-oncogene tyrosine-protein kinase Src (P12931 2-536 limits assumed): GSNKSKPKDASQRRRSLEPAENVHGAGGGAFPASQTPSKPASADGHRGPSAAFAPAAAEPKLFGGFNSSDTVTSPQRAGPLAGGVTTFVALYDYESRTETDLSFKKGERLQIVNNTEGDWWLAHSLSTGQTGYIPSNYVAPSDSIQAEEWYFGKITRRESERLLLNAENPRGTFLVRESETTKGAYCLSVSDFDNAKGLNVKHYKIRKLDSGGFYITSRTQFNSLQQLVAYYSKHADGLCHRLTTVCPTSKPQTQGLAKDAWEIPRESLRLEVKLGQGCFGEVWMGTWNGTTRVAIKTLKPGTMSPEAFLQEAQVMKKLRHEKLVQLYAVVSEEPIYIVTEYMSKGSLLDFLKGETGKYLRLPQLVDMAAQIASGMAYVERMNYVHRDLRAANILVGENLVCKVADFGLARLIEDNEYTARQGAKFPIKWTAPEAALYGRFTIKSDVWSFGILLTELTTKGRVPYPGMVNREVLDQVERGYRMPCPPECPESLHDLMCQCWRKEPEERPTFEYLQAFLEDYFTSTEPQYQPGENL

Compared with `O=C1C(O)=C(c2ccccc2)C(=O)C(O)=C1c1ccccc1`, `O=C1C(O)=C(c2ccc(O)cc2)C(=O)C(O)=C1c1ccccc1` is lower in IC50: > 50 µM for the first, 37.5 µM for the second.

First: O=C1C(O)=C(c2cc(O)c(O)c(O)c2)C(=O)C(O)=C1c1ccccc1
Second: O=C1C(O)=C(c2ccc(O)c(O)c2)C(=O)C(O)=C1c1ccccc1
The IC50 of the first is 3.7-fold lower: 3.9 µM for the first, 14.5 µM for the second. The first is the more potent here.

Molecule `O=C1C(c2ccccc2)=C(O)C(=O)c2c1oc1cc(O)c(O)cc21` has an IC50 of 23.6 µM.
